Measurements published in PubChem BioAssay (NCI).
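Assay format: 96-well plates, 48-hour exposure. TGI: concentration producing complete growth inhibition.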 Residues, ends and D or L forms follow the SMILES beside them. *: point of attachment. Boc = CC(C)(C)OC(=O)*; OBn = c1ccc(CO*)cc1

Columns and labels:
Experiment in all cases: NCI anticancer screen, dose series, 48 h
[1] = tested on: SK-MEL-5 melanoma
[2] = tested on: SNB-75 CNS
[3] = tested on: 786-0 renal
[4] = tested on: HS 578T breast
[5] = tested on: A549 NSCLC
[6] = tested on: IGROV1 ovarian
[7] = tested on: SW-620 colon
[8] = tested on: OVCAR-3 ovarian
[9] = tested on: MDA-MB-231 breast
[10] = tested on: TK-10 renal
[11] = tested on: HCT-116 colon
[12] = tested on: NCI/ADR-RES ovarian
[13] = tested on: COLO 205 colon
[14] = tested on: SN12C renal
[15] = tested on: SK-MEL-28 melanoma
[16] = tested on: RXF 393 renal
[17] = tested on: CAKI-1 renal
[18] = tested on: SF-539 CNS
[19] = tested on: HT29 colon
[20] = tested on: T-47D breast
[21] = tested on: HCT-15 colon
[22] = tested on: UACC-62 melanoma
[23] = tested on: HOP-92 NSCLC
[24] = tested on: MDA-N
[25] = tested on: SR leukemia
[26] = tested on: UACC-257 melanoma
[27] = tested on: K-562 leukemia
[28] = tested on: LOX IMVI melanoma
[29] = tested on: UO-31 renal
[30] = tested on: NCI-H226 lung
[31] = tested on: SF-295 CNS
[32] = tested on: DU-145 prostate
[33] = tested on: U251 CNS
[34] = tested on: KM12 colon
[35] = tested on: A498 renal
[36] = tested on: OVCAR-4 ovarian
[37] = tested on: NCI-H522 lung
[38] = tested on: SF-268 CNS
[39] = tested on: OVCAR-8 ovarian
[40] = tested on: M14 melanoma
[41] = tested on: NCI-H23 lung
[42] = tested on: BT-549 breast
[43] = tested on: OVCAR-5 ovarian
[44] = tested on: ACHN renal
[45] = tested on: SNB-19 CNS
[46] = tested on: PC-3 prostate
[47] = tested on: EKVX NSCLC
[48] = tested on: MDA-MB-435
[49] = tested on: SK-OV-3 ovarian
[50] = tested on: MALME-3M melanoma
[51] = tested on: MCF7 breast
[52] = tested on: SK-MEL-2 melanoma
[53] = tested on: RPMI-8226 leukemia
[54] = tested on: HCC-2998 colon
[55] = tested on: MOLT-4 leukemia
[56] = tested on: HOP-62 NSCLC
[57] = tested on: HL-60(TB) leukemia
[58] = tested on: CCRF-CEM leukemia

Which TGI [1] does the source give for `CC(C)CC(NC(=O)OC(C)(C)C)C(=O)NC(CC(=O)OCc1ccccc1)C(N)=O` (stereo not drawn) (Boc-Leu-Asp(OBn)-NH2; configuration not given here) here?
Its TGI is > 100 µM.

And the TGI [2]?
The TGI was > 100 µM.

What about the TGI [3] of the same compound?
The TGI was > 100 µM.

What about the TGI [4] of the same compound?
The TGI was > 100 µM.

What about the TGI [5] of the same compound?
Its TGI is > 100 µM.

What about the TGI [6] of the same compound?
The TGI was > 100 µM.

What about the TGI [7] of the same compound?
Its TGI is > 100 µM.

And the TGI [8]?
The TGI was > 100 µM.

What about the TGI [9] of the same compound?
The TGI was > 100 µM.

And the TGI [10]?
The TGI was > 100 µM.

What about the TGI [11] of the same compound?
Its TGI is > 100 µM.

What about the TGI [12] of the same compound?
Its TGI is > 100 µM.

What about the TGI [13] of the same compound?
Its TGI is > 100 µM.

What about the TGI [14] of the same compound?
The TGI was > 100 µM.

What about the TGI [15] of the same compound?
Its TGI is > 100 µM.

And the TGI [16]?
Its TGI is > 100 µM.

And the TGI [17]?
Its TGI is > 100 µM.

And the TGI [18]?
Its TGI is > 100 µM.

What about the TGI [19] of the same compound?
The TGI was > 100 µM.

And the TGI [20]?
Its TGI is > 100 µM.

And the TGI [21]?
The TGI was > 100 µM.

What about the TGI [22] of the same compound?
Its TGI is > 100 µM.

What about the TGI [23] of the same compound?
The TGI was > 100 µM.

And the TGI [24]?
Its TGI is > 100 µM.

And the TGI [25]?
Its TGI is > 100 µM.

What about the TGI [26] of the same compound?
Its TGI is > 100 µM.

And the TGI [27]?
Its TGI is > 100 µM.

And the TGI [28]?
The TGI was > 100 µM.

What about the TGI [29] of the same compound?
Its TGI is > 100 µM.

What about the TGI [30] of the same compound?
The TGI was > 100 µM.

What about the TGI [31] of the same compound?
Its TGI is > 100 µM.

And the TGI [32]?
The TGI was > 100 µM.

What about the TGI [33] of the same compound?
Its TGI is > 100 µM.

What about the TGI [34] of the same compound?
The TGI was > 100 µM.

What about the TGI [35] of the same compound?
The TGI was > 100 µM.

And the TGI [36]?
Its TGI is > 100 µM.

And the TGI [37]?
Its TGI is > 100 µM.

And the TGI [38]?
Its TGI is > 100 µM.

What about the TGI [39] of the same compound?
Its TGI is > 100 µM.

What about the TGI [40] of the same compound?
Its TGI is > 100 µM.

And the TGI [41]?
Its TGI is > 100 µM.

And the TGI [42]?
Its TGI is > 100 µM.

What about the TGI [43] of the same compound?
Its TGI is > 100 µM.

What about the TGI [44] of the same compound?
Its TGI is > 100 µM.

What about the TGI [45] of the same compound?
The TGI was > 100 µM.

And the TGI [46]?
Its TGI is > 100 µM.

And the TGI [47]?
The TGI was > 100 µM.

And the TGI [48]?
The TGI was > 100 µM.

What about the TGI [49] of the same compound?
Its TGI is > 100 µM.

What about the TGI [50] of the same compound?
Its TGI is > 100 µM.

And the TGI [51]?
Its TGI is > 100 µM.

What about the TGI [52] of the same compound?
Its TGI is > 100 µM.

How did the TGI [1] turn out when `CC1=CC(C)(C)[C@H]2O[C@@]3(O)C[C@]4(C)[C@H]5C[C@@](C(C)C)(O[C@H]4c4ccoc4)O[C@H]4[C@]5(C3)O[C@@]1(O)[C@]24O` was run?
The TGI was > 100 µM.

And the TGI [2]?
The TGI was 64.6 µM.

And the TGI [53]?
The TGI was > 100 µM.

What about the TGI [3] of the same compound?
Its TGI is > 100 µM.

And the TGI [4]?
The TGI was > 100 µM.

What about the TGI [5] of the same compound?
Its TGI is > 100 µM.

What about the TGI [6] of the same compound?
Its TGI is > 100 µM.

What about the TGI [7] of the same compound?
Its TGI is > 100 µM.

What about the TGI [8] of the same compound?
The TGI was > 100 µM.

And the TGI [9]?
Its TGI is > 100 µM.

What about the TGI [10] of the same compound?
The TGI was > 100 µM.

What about the TGI [11] of the same compound?
The TGI was > 100 µM.

And the TGI [54]?
The TGI was > 100 µM.

What about the TGI [12] of the same compound?
Its TGI is > 100 µM.

And the TGI [13]?
The TGI was > 100 µM.

What about the TGI [14] of the same compound?
The TGI was > 100 µM.

What about the TGI [15] of the same compound?
Its TGI is > 100 µM.

And the TGI [16]?
The TGI was > 100 µM.

And the TGI [17]?
Its TGI is > 100 µM.

What about the TGI [18] of the same compound?
Its TGI is > 100 µM.

What about the TGI [19] of the same compound?
Its TGI is > 100 µM.

And the TGI [20]?
The TGI was > 100 µM.

And the TGI [21]?
Its TGI is > 100 µM.

What about the TGI [22] of the same compound?
The TGI was > 100 µM.

And the TGI [23]?
Its TGI is > 100 µM.

And the TGI [24]?
The TGI was > 100 µM.

What about the TGI [25] of the same compound?
The TGI was > 100 µM.

What about the TGI [26] of the same compound?
The TGI was > 100 µM.

What about the TGI [27] of the same compound?
The TGI was > 100 µM.

And the TGI [28]?
The TGI was > 100 µM.

And the TGI [29]?
Its TGI is > 100 µM.

And the TGI [30]?
The TGI was > 100 µM.

What about the TGI [31] of the same compound?
Its TGI is > 100 µM.

And the TGI [32]?
The TGI was > 100 µM.

What about the TGI [33] of the same compound?
Its TGI is > 100 µM.

What about the TGI [34] of the same compound?
Its TGI is > 100 µM.

What about the TGI [36] of the same compound?
Its TGI is > 100 µM.

And the TGI [37]?
Its TGI is 45.8 µM.

What about the TGI [38] of the same compound?
The TGI was > 100 µM.

What about the TGI [39] of the same compound?
The TGI was > 100 µM.

And the TGI [40]?
The TGI was > 100 µM.

What about the TGI [41] of the same compound?
The TGI was > 100 µM.

What about the TGI [42] of the same compound?
Its TGI is > 100 µM.

What about the TGI [43] of the same compound?
The TGI was > 100 µM.

And the TGI [44]?
Its TGI is > 100 µM.

What about the TGI [45] of the same compound?
The TGI was > 100 µM.

And the TGI [55]?
Its TGI is > 100 µM.

And the TGI [56]?
The TGI was 82 µM.

What about the TGI [57] of the same compound?
Its TGI is > 100 µM.

And the TGI [46]?
The TGI was > 100 µM.

What about the TGI [47] of the same compound?
Its TGI is > 100 µM.

And the TGI [48]?
Its TGI is > 100 µM.

And the TGI [49]?
The TGI was > 100 µM.

What about the TGI [58] of the same compound?
The TGI was > 100 µM.

And the TGI [50]?
The TGI was > 100 µM.

And the TGI [51]?
The TGI was > 100 µM.

And the TGI [52]?
Its TGI is > 100 µM.
